# Experiments:
# CB1 receptor [1] = target: T1, CB1 receptor (Homo sapiens, UniProt P21554); experiment: Functional activity versus the CB1 receptor (statement, no method)
# [2] = target: T2, mouse CB1 (mouse brain membrane) (Mus musculus, UniProt P47746); experiment: Competition ligand binding assay, mouse brain membrane preparations
# T2 construct: or mouse brain membrane preparations in 96-well plate format; from tissue; host or cells: mouse brain membranes
# Method: (§1) Competition ligand binding assays were performed with the non-selective cannabinoid receptor agonist ([^3H]CP 55,940) (0.75 nM) in the binding buffer containing 50 mM Tris-HCl, pH 7.4, 3 mM MgCl2, 1 mM EDTA, 0.2% BSA using CHO-k1 cell membranes stably expressing human CB1 receptors or mouse brain membrane preparations in 96-well plate format. The receptor membranes (10 μg/well) were pre-incubated with different concentrations of tested compounds in the binding buffer at room temperature for 30 min prior to addition of 0.75 nM [^3H]CP 55,940 in a final volume of 100 μl. The binding was carried out at room temperature for another 2 h. To determine the non-specific binding, experiments were also performed in the presence of 10 μM unlabeled CP 55,940. Binding was terminated by addition of cold binding buffer and filtrated on Whatman GF/B glass-fiber filters using a sampling manifold. The filters were washed 6 times with cold binding buffer and air-dried overnight. The radioactivity was quantitated on a TopCounter (PerkinElmer) after adding scintillation fluid. Specific binding was defined as the difference between the binding in the presence and absence of 10 μM unlabeled CP 55, 940.
# CB1 receptor [3] = target: T1, CB1 receptor; experiment: Competition ligand binding assay, CHO-k1 cell membranes; parameters: expressed in transfected cells; host or cells: CHO-k1 cell membranes; details: 0.75 nM radioligand, FIG. 6
# Method: as §1
# CB1 receptor [4] = target: T1, CB1 receptor; experiment: [35S]GTPγS binding assay on CHO-k1 cell membranes; type: biochemical; parameters: expressed in transfected cells; host or cells: CHO-k1 cell membranes
# Method: [^35S]GTPγS binding assays were performed with CHO-k1 cell membranes stably expressing human CB1 receptors in 96-well ScintiPlate (PerkinElmer). The membranes (12.5 μg/well) were preincubated with compound 7 in the binding buffer (50 mM Tris-HCl, pH 7.4, 100 mM NaCl, 3 mM MgCl2, 0.2 mM EDTA, 0.2% BSA and 10 μM GDP) at 30° C. for 30 min, then added various concentrations of agonists (WIN 55212-2 or CP 55,940) and [^35S]GTPγS (0.2 nM) in a final volume of 200 μl. Reactions were carried out at 30° C. for 60 min, followed by centrifugation of plate at […] for 15 min. After removing supernatant, the radioactivity was quantitated on a TopCounter.
# [5] = target: T3, Human Cannabinoid 1 (CB1) receptor (Homo sapiens, UniProt P21554); experiment: Ca2+i response to 2-AG dose-response in CB1 cells with or without compound (DSIS flow cytometry); type: cell-based; details: 2-AG with or without compound, FIG. 2
# T3 construct: expressed in transfected cells; host or cells: CHO cells stably expressing the GqΔGi chimera; clonal CB1 line
# T3 sequence (P21554 whole entry): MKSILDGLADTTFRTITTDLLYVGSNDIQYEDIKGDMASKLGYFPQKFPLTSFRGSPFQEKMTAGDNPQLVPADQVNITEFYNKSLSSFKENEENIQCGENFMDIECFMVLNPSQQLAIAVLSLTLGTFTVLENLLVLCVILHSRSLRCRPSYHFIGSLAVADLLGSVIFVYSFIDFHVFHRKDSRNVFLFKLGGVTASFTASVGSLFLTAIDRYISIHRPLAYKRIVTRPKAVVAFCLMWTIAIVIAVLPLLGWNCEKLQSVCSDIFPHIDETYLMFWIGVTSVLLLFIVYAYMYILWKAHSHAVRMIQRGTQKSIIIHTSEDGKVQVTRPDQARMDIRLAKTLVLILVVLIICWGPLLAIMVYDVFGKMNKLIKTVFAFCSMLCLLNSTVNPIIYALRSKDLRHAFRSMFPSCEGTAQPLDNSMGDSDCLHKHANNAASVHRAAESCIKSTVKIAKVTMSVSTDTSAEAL
# Excerpt: cDNA for the G protein GqΔGi chimera was generated by PCR and inserted into the polylinker region of the pcDNA3/hygro+ vector (Invitrogen). Stable expression of GqΔGi chimera protein in CHO cell line was generated under hygromycin selection. Human Cannabinoid 1 (CB1) cDNA was inserted into the polylinker region of the pcDNA3.1/(+) vector (Invitrogen) and DNA was introduced into the GqΔGi/CHO cell line by Lipofectamine reagent (Invitrogen). Cell lines stably expressing the CB receptor with GqΔGi chimera protein were generated by double selection with hygromycin and G418 (Coward, P., et al. 1999. Chimeric G proteins allow a high-throughput signaling assay of Gi-coupled receptors. Anal Biochem. 270:242-8).
# CB1 Cells were plated 24-48 hours in advance, and were harvested with trypsin at ˜80% confluency. Cells were then centrifuged and resuspended two times in Hybridoma Media, the final time at a concentration of 1×10^6 cells/mL. Two μM of Indo-1 were added and cells were incubated for 1 hour on a rotator at room temperature. […]
# The probe-loaded CB1 and Control cell mixture was placed in the Cell Suspension System on the DSIS where they were continuously rocked to keep them in a suspended state. […] The DSIS software, NVS Sampler, recorded a timing file and the CyAn software, Summit, recorded a data file. […]
# CB2 receptor = target: T4, CB2 receptor (Homo sapiens, UniProt P34972); experiment: Ca2+i response to 2-AG dose-response in CB2 receptor bearing cells with or without compound; type: cell-based; details: 2-AG with or without compound, FIG. 2
# T4 construct: host or cells: CB2 receptor bearing cells (host line not described)
# T4 sequence (P34972 whole entry): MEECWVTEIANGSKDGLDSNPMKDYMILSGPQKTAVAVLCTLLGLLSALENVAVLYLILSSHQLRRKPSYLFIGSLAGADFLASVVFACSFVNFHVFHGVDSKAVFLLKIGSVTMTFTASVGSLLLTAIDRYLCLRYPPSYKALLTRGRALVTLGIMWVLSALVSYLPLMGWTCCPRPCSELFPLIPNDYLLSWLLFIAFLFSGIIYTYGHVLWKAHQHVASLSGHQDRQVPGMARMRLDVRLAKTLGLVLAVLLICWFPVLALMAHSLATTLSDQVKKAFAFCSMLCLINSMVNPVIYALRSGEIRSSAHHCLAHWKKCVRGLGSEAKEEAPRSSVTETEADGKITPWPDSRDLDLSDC
# CB1 receptor [6] = target: T1, CB1 receptor; experiment: Dissociation kinetics assay with [3H]CP 55,940 on CHO-k1 cell membranes; type: binding; parameters: expressed in transfected cells; host or cells: CHO-k1 cell membranes; details: 0.75 nM [3H]CP 55,940, room temperature, FIG. 3
# Method: Dissociation kinetics assays were performed with the non-selective cannabinoid receptor agonist ([^3H]CP 55,940) (0.75 nM) in the binding buffer containing 50 mM Tris-HCl, pH 7.4, 3 mM MgCl2, 1 mM EDTA, 0.2% BSA using CHO-k1 cell membranes stably expressing human CB1 receptors in 96-well plate format. The CB1 receptor membranes (10 μg/well) were incubated with 0.75 nM [^3H]CP 55,940 in 100 μl binding buffer at room temperature for 2 h. Dissociation was initiated with addition of 100 μl unlabeled CP 55,940 (10 μM) in binding buffer in the absence or presence of different concentrations of compounds (compound 7). Dissociation was carried out at room temperature for indicated time. To determine the non-specific binding, experiments were also performed in the presence of 10 μM unlabeled CP 55,940. Binding was terminated by addition of cold binding buffer and filtrated on Whatman GF/B glass-fiber filters using a sampling manifold. The filters were washed 6 times with cold binding buffer and air-dried overnight. The radioactivity was quantitated on a TopCounter (PerkinElmer) after adding scintillation fluid. Specific binding was defined as the difference between the binding in the presence and absence of 10 μM unlabeled CP 55,940.
# [7] = Body weight of diet-induced obese mice, repeated oral administration (Example 2); type: in vivo, male C57BL/6J mice; details: for reduction of body weight: dosed for 28 days, DIO mice, FIG. 8
# Method: Sixty-five C57BL/6J mice (7-8 weeks of age) were ordered from Charles River, Margate, Kent. Mice were group housed in polypropylene cages with free access to a high fat diet (D12451 45% of Kcal derived from fat; Research Diets, New Jersey, USA) and tap water at all times. Animals were maintained at 21±4° C. and 55±20% humidity on a normal phase 12 h light-dark cycle (lights on 04:30 h)
# Body weight and food and water intake were recorded daily. Following drug administration the animals were examined and any overt behaviour was recorded. For all dosing, the morning session was timed such that approximately half the mice were dosed at the time of lights out (09:30).
# The test compounds were dissolved in 1% methylcellulose. Drugs were made up fresh each day 1-2 h before dosing and were administered using a dose volume in the range of 1-3 ml/kg. Drug doses were expressed as free base.
# P<0.05 was considered to be statistically significant. Daily food and water intake data was analysed by ANOVA.
# [8] = Acute administration: wet mash and food intake and 24 h body weight in lean mice (Example 3); type: in vivo, male C57BL/6J mice; details: dosed orally at 10 mg/kg, one-way ANOVA
# [9] = Body weight of diet-induced obese mice, chronic administration of Treatment E (Example 4)
# T2 sequence (P47746 whole entry): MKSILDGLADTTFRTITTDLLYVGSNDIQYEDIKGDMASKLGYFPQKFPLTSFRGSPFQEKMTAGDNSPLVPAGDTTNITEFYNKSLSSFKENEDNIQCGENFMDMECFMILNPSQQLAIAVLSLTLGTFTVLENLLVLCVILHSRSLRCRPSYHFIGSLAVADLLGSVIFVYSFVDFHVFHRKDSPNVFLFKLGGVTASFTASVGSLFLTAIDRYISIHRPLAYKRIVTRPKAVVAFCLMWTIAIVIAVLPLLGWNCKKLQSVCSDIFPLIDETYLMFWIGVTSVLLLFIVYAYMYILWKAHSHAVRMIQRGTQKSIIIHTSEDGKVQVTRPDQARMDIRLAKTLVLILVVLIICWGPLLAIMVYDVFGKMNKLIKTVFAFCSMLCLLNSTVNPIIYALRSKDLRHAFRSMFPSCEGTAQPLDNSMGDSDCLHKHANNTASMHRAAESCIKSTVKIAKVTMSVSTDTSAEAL
# T1 sequence (P21554 whole entry): as the sequence (P21554 whole entry) above
compound,measurement,setting,value
CNCC[C@H](Oc1ccc(C(F)(F)F)cc1)c1ccccc1 [(S)-Fluoxetine],functional activity versus the CB1 receptor,CB1 receptor [1],inverse agonist
Fc1ccc(C(OCCCc2c[nH]cn2)c2ccc(F)cc2)cc1 [compound 7],inhibition of agonist (CP 55940) binding,"[2]; mouse brain membrane, FIG. 7",inhibited
same,inhibition of antagonist/inverse agonist (SR 141716) binding,"[2]; mouse brain membrane, FIG. 7",inhibited
same,"inhibition of binding of [3H]CP 55,940","[2]; mouse brain membranes, 0.75 nM radioligand, FIG. 6",almost fully inhibited
same,"inhibition of binding of [3H]CP 55,940",CB1 receptor [3],partially inhibited
same,pA2 estimation using CP 55940 as an agonist,"CB1 receptor [4]; CB1 cell line, FIG. 4",did not support an allosteric effect
same,[35S]GTPγS binding: antagonist versus inverse agonist activity,"CB1 receptor [4]; response dropped below basal levels, FIG. 5",inverse agonist activity
same,effect on the 2-AG dose response (Ca2+i),[5],right shift
same,effect on the 2-AG dose response (Ca2+i),CB2 receptor,No effect
same,"effect on the dissociation rate of [3H]CP 55,940",CB1 receptor [6],no effect
CNCC[C@@H](Oc1ccc(C(F)(F)F)cc1)c1ccccc1 [(R)-fluoxetine],functional activity versus the CB1 receptor,CB1 receptor [1],antagonist
"NCCC(Oc1ccc(C(F)(F)F)cc1)c1ccccc1 (racemic) [racemate of norfluoxetine, 3-(4-trifluoromethylphenoxy)-3-phenylpropylamine]",functional activity versus the CB1 receptor,CB1 receptor [1],antagonist
CC(C)CC(N(C)C)C1(c2ccc(Cl)cc2)CCC1 (centres unmarked) [sibutramine],reduction of body weight,[7]; 20 mg/kg po,2%
Cc1c(C(=O)NN2CCCCC2)nn(-c2ccc(Cl)cc2Cl)c1-c1ccc(Cl)cc1 [rimonabant],24 hour body weight change versus vehicle,[8],No significant differences
same,body weight versus vehicle,[8],No significant differences
same,daily food intake versus vehicle,[8],No significant differences
same,reduction in body weight,"[9]; 10 mg/kg orally, chronic administration, DIO mice, FIG. 22",15%
same,weight reduction as compared to vehicle on day 29 (Dunnett's test),"[9]; dosed orally at 10 mg/kg, p<0.001",statistically significant weight reduction
same,reduction of body weight,[7]; 10 mg/kg po,15%
same,weight reduction as compared to vehicle on day 29 (Dunnett's test),"[7]; 10 mg/kg po, p<0.001, DIO mice",statistically significant weight reduction

# Source: patent publication US20090036426A1 (AMPLA Pharmaceuticals Inc., priority 2007, published 2009)
